From publication PMC3423592 (ACS chemical biology, 2012)

Tests used:
[1] = system: diverse panel of 200 kinases; conditions: in this panel; cited from earlier work
[2] = system: 4T1 cells; test: 4T1 cell growth in 3D culture; type: cell-based; conditions: 3 μM GNF-2 added to 10 μM compound 4
[3] = system: MDA-MB-453; test: cell growth inhibition assay; type: cell-based; conditions: read-out: GI50, MDA-MB-453; 72 h, WST-1
[4] = system: MCF7; test: cell growth inhibition assay; type: cell-based; conditions: read-out: GI50, MCF7; 72 h, WST-1
[5] = target: c-Src (Gallus gallus, UniProt P00523); test: continuous fluorimetric biochemical inhibition assay, c-Src; design: species or system chicken; conditions: read-out: Ki, c-Src; ATP = 100 μM, substrate peptide = 45 μM
[6] = system: SK-BR-3; test: cell growth inhibition assay; type: cell-based; conditions: read-out: GI50, SK-BR-3; 72 h, WST-1
[7] = system: diverse panel of 200 kinases; test: KINOMEscan ATP-site competition binding, diverse kinase panel profiling; conditions: 10 μM
[8] = system: HT-29; test: cell growth inhibition assay; type: cell-based; conditions: read-out: GI50, HT-29; 72 h, WST-1
[9] = target: ErbB2 (Homo sapiens, UniProt P04626); test: KINOMEscan profiling, ErbB2; conditions: 10 μM
Sequence of ErbB2 (P04626 23-1255): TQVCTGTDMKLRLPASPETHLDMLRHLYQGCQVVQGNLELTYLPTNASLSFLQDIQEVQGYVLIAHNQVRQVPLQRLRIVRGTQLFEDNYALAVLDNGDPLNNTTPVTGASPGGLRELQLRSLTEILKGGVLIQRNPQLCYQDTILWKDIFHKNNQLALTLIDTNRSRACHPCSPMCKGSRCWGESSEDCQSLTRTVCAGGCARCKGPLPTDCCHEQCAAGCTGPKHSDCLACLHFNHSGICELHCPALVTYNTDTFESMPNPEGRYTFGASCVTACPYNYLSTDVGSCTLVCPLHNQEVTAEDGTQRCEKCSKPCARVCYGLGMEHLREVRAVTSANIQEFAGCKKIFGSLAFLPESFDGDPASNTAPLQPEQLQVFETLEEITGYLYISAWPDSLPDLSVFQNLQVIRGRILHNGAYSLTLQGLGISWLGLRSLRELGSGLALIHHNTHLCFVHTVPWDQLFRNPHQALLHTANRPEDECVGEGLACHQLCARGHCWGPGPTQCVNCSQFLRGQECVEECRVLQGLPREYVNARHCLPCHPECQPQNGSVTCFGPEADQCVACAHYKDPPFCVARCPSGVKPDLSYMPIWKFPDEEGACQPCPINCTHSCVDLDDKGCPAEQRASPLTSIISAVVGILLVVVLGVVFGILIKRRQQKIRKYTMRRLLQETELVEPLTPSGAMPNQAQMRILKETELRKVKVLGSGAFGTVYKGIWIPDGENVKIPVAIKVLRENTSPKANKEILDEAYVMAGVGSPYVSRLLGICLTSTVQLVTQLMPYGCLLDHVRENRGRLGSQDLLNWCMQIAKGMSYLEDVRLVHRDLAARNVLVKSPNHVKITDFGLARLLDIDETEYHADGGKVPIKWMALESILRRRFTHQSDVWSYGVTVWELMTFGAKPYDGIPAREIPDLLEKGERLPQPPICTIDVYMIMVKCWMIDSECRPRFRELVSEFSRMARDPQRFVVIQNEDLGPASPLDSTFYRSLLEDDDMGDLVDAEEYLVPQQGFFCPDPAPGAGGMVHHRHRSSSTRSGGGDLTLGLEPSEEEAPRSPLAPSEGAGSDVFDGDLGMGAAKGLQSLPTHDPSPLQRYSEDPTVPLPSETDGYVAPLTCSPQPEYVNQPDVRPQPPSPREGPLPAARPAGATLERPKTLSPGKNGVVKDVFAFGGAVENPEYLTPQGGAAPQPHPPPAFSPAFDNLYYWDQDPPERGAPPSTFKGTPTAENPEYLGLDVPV

[10] = system: NIH-3T3; test: cell growth inhibition assay; type: cell-based; conditions: read-out: GI50, NIH-3T3; 72 h, WST-1; non-cancer cell line
[11] = target: ErbB3 (Homo sapiens, UniProt P21860); test: KINOMEscan profiling, ErbB3; conditions: 10 μM
Sequence of ErbB3 (P21860 20-1342): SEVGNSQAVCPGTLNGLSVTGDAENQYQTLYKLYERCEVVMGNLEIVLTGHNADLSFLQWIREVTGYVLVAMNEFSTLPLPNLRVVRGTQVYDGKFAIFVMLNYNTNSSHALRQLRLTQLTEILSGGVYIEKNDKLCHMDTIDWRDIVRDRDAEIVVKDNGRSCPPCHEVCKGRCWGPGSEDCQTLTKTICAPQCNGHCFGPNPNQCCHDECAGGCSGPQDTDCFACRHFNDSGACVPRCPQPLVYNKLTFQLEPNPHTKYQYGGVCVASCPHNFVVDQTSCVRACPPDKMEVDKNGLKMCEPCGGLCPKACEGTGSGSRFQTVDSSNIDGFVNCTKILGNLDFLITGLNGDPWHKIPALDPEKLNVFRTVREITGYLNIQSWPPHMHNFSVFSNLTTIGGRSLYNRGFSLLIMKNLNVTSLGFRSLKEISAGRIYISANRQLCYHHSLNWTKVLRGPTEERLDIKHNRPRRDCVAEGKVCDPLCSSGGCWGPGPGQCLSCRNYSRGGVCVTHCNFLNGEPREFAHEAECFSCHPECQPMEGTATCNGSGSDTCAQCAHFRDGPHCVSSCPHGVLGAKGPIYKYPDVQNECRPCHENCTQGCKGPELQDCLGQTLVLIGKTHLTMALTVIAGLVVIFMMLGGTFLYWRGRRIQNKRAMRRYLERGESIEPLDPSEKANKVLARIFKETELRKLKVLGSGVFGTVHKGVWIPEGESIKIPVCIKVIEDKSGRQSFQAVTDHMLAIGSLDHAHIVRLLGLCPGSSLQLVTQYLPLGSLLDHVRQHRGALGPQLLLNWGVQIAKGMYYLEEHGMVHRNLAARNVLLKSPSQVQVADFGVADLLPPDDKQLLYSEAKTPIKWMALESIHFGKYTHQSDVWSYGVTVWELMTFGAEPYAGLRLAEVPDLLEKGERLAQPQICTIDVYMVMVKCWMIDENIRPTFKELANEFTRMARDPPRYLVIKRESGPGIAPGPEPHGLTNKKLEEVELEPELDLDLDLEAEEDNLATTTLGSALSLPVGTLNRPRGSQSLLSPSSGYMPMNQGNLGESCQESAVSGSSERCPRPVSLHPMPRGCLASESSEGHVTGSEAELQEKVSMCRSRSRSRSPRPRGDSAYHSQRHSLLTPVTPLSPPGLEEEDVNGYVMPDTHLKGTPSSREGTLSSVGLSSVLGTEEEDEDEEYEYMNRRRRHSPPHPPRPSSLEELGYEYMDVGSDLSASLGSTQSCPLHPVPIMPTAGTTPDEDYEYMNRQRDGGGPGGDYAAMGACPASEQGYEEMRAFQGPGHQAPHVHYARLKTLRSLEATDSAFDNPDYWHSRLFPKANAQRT

SMILES: Cc1nc(Nc2ncc(C(=O)Nc3c(C)cccc3Cl)s2)cc(N2CCN(CCO)CC2)n1 [dasatinib]
- S35 selectivity score [1]: 0.27

SMILES: NC(=O)c1cccc(-c2cc(Nc3ccc(OC(F)(F)F)cc3)ncn2)c1 [GNF-2]
- 4T1 cell proliferation in 3D culture, effect of co-dosing [2]: mitigates effects of compound 4

SMILES: CC(C)(C)n1nc(-c2ccc(Cl)cc2)c2c(N)ncnc21 [PP2]
- GI50 [3]: 14 µM
- GI50 [4]: > 100 µM
- Ki [5]: 0.033 µM
- GI50 [6]: > 100 µM
- number of kinases with >95% displacement from an immobilized ligand [7]: 56
- number of kinases with >99% displacement from an immobilized ligand [7]: 24
- GI50 [8]: 48 µM
- inhibition of ErbB2 in profiling [9]: significantly inhibits
- GI50 [10]: 17 µM
- inhibition of ErbB3 in profiling [11]: significantly inhibits
